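Cells were grown in 96-well plates and exposed to each compound for 48 hours at five concentrations; endpoints were interpolated linearly between bracketing concentrations, or set to the highest concentration if not reached. At the GI50, growth is halved. TGI: total growth inhibition.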
What was measured:
Assay in all cases: inhibition of tumour cell growth, NCI panel, 48 h
[1] = tested on: COLO 205 colon
[2] = tested on: DU-145 prostate
[3] = tested on: HCT-116 colon
[4] = tested on: HCT-15 colon
[5] = tested on: HOP-62 NSCLC
[6] = tested on: HS 578T breast
[7] = tested on: K-562 leukemia
[8] = tested on: M14 melanoma
[9] = tested on: MDA-MB-231 breast
[10] = tested on: OVCAR-5 ovarian
[11] = tested on: OVCAR-8 ovarian
[12] = tested on: SF-295 CNS
[13] = tested on: SK-MEL-5 melanoma
[14] = tested on: SK-OV-3 ovarian
[15] = tested on: T-47D breast
[16] = tested on: UO-31 renal
[17] = tested on: HCC-2998 colon
[18] = tested on: RXF 393 renal

| SMILES | TGI [1] | TGI [2] | TGI [3] | TGI [4] | TGI [5] | TGI [6] | TGI [7] | TGI [8] | TGI [9] | TGI [10] | TGI [11] | TGI [12] | TGI [13] | TGI [14] | TGI [15] | TGI [16] | TGI [17] | TGI [18] | GI50 [3] |
| --- | --- | --- | --- | --- | --- | --- | --- | --- | --- | --- | --- | --- | --- | --- | --- | --- | --- | --- | --- |
| CCOC(=O)/C(C#N)=N\Nc1ccc(-n2c(C)nc3ccc(Br)cc3c2=O)cc1 | > 100 µM | > 100 µM | > 100 µM | > 100 µM | > 100 µM | > 100 µM | > 100 µM | > 100 µM | > 100 µM | > 100 µM | > 100 µM | > 100 µM | > 100 µM | > 100 µM | > 100 µM | > 100 µM |  |  |  |
| O=C(CC(C(=O)c1ccsc1)c1cccs1)c1ccsc1 (stereo unspecified) | > 100 µM | > 100 µM |  | > 100 µM | > 100 µM |  | > 100 µM | > 100 µM | > 100 µM | > 100 µM | > 100 µM | > 100 µM | > 100 µM | > 100 µM | 84.3 µM | > 100 µM | > 100 µM |  |  |
| O=c1[nH]nc(Cc2ccc(Cl)cc2)n1Nc1ccccc1 | > 100 µM | 27.8 µM | > 100 µM | > 100 µM | > 100 µM | > 100 µM | > 100 µM | > 100 µM | > 100 µM | > 100 µM | > 100 µM | > 100 µM | > 100 µM |  | > 100 µM | > 100 µM | > 100 µM |  |  |
| CCOC(=O)C(NC(=O)Nc1ccccc1F)(OC)C(F)(F)F (stereo unspecified) | > 100 µM |  | > 100 µM | > 100 µM |  | > 100 µM | > 100 µM | > 100 µM |  | > 100 µM | > 100 µM |  | > 100 µM | > 100 µM | > 100 µM | > 100 µM | > 100 µM | > 100 µM |  |
| c1ccc2c(c1)SCCCSCCCS2 | > 100 µM | > 100 µM | > 100 µM | > 100 µM | > 100 µM |  | > 100 µM | > 100 µM | > 100 µM | > 100 µM | > 100 µM | > 100 µM | > 100 µM | > 100 µM | > 100 µM |  | > 100 µM |  |  |
| O=C(Nc1ccc(Cl)cc1)C(=O)C1=C(O)c2ccccc2OC1 | > 100 µM | > 100 µM | > 100 µM | > 100 µM |  | > 100 µM | > 100 µM | > 100 µM | > 100 µM | > 100 µM | > 100 µM | > 100 µM | > 100 µM | > 100 µM | > 100 µM | > 100 µM | > 100 µM |  |  |
| CCOC(=O)CC(=O)Nc1c(C(=O)OCC)sc2nc(SC)nc(Nc3ccc(OC)c(OC)c3)c12 | > 100 µM | > 100 µM | > 100 µM | > 100 µM |  | > 100 µM |  | > 100 µM | > 100 µM | > 100 µM | > 100 µM | 76.1 µM | > 100 µM |  |  | > 100 µM | > 100 µM | 25.1 µM |  |
| COc1ccc2[nH]c3c(c2c1)CCc1ccccc1-3 | > 100 µM | > 100 µM | > 100 µM | > 100 µM | > 100 µM | 37.4 µM | > 100 µM | > 100 µM | 76.1 µM | > 100 µM | > 100 µM | > 100 µM | > 100 µM | > 100 µM | > 100 µM | > 100 µM | > 100 µM |  |  |
| CCOP(=O)(OCC)OC1CC(n2cnc3c(N(CC)CC)ncnc32)OC1CO[Si](C)(C)C(C)(C)C (stereo unspecified) | 32.8 µM | 28.8 µM | 30.6 µM | 45 µM | 34 µM | 77.1 µM | 57.6 µM | 33.1 µM |  | 37.1 µM | 56.4 µM | 31 µM | 31.4 µM | 31.6 µM | 27.8 µM | 35.4 µM | 43.8 µM | 32.3 µM |  |
| Cc1[nH]c2ncn(N)c(=N)c2c1Cc1ccccc1 | > 100 µM |  | > 100 µM | > 100 µM | > 100 µM |  | > 100 µM | > 100 µM | > 100 µM | > 100 µM | > 100 µM | > 100 µM | > 100 µM | > 100 µM | > 100 µM | > 100 µM | > 100 µM |  |  |
| O=C(O)C1CCCCN1CCc1c[nH]c2ccccc12 (stereo unspecified) | > 100 µM | > 100 µM | > 100 µM | > 100 µM | > 100 µM |  | > 100 µM | > 100 µM | > 100 µM | > 100 µM | > 100 µM | > 100 µM |  | > 100 µM | > 100 µM |  | > 100 µM | > 100 µM |  |
| COc1ccc(/C=N/Nc2nc3ccccc3c(=O)n2-c2ccccc2)cc1 | > 100 µM | > 100 µM | > 100 µM | > 100 µM | > 100 µM |  | > 100 µM | > 100 µM | > 100 µM | > 100 µM | > 100 µM | > 100 µM | > 100 µM | > 100 µM | > 100 µM | 14.9 µM | > 100 µM | > 100 µM |  |
| COc1ccc(-c2c(C(=O)Nc3ccccc3)c(-c3ccccc3)n(C3OC(CO)C(O)C(O)C3O)c(=S)c2C#N)cc1 (stereo unspecified) | > 100 µM | > 100 µM | > 100 µM | > 100 µM | > 100 µM | > 100 µM | > 100 µM | > 100 µM |  | > 100 µM | > 100 µM | > 100 µM | > 100 µM |  |  | > 100 µM | > 100 µM | > 100 µM |  |
| O=C1NCC2=C1CCC1c3ccccc3CCN21 (stereo unspecified) | > 100 µM |  | > 100 µM | > 100 µM |  |  |  |  |  | > 100 µM | > 100 µM | > 100 µM | > 100 µM | > 100 µM |  | > 100 µM | > 100 µM | > 100 µM |  |
| COc1ccc(OC)c(CC(=O)c2ccc(O)c(C(=O)NCCc3ccc(F)cc3)c2)c1 | 31.7 µM |  | 19.9 µM | 17.1 µM | 5.63 µM | 8.69 µM | > 100 µM | 9.2 µM | 20.4 µM | > 100 µM | 21.8 µM | 10.1 µM | 11.4 µM | 9.96 µM | 8.44 µM | 23.4 µM | 13.1 µM | 2.9 µM | 4.05 µM |

Source: PubChem BioAssay (NCI)
